Key:
Type in all cases: physicochemical
[1] = oil ink tested by UV-Vis spectrophotometer; design: FoM / value of a / value of b: scale not given here; settings: oil ink in dodecane; for FoM: Figure of Merit = ε×C; for full width at half maximum (nm): wavelength range at half height of absorption at λ max
Method: (§1) 1.0 g of purified dye (dis-azo compound of the present invention) weighed was dispersed in 10 g of dodecane and then heated to 80° C. and stirred for one hour. After that, the mixture solution was removed to a ultrasonic oscillator and oscillated for one hour and then filtered through 0.45 μm filter to obtain the oil ink of the present invention. The oil ink of the present invention was tested by UV-Vis spectrophotometer. According to Table 3, ail of the oil ink of the present invention fulfills elementary conditions of oil ink for electrowetting display.

[2] = oil ink performance test: viscosity and surface tension; design: surface tension (dyne/cm^2): unit not given here; settings: for surface tension (dyne/cm^2): oil ink in dodecane; for viscosity (cp): oil ink: 1.0 g dye dispersed in 10 g dodecane, filtered 0.45 μm
Method: as §1, with “The oil ink of the present invention was tested by UV-Vis spectrophotometer.” left out

[3] = maximum absorption wavelength and molar absorption coefficient in dodecane; settings: for wavelength (nm)/dodecane: maximum absorption wavelength
solubility in dodecane = assay: solubility in dodecane

Compound | FoM [1] | full width at half maximum (nm) [1] | surface tension (dyne/cm^2) [2] | viscosity (cp) [2] | ε (molar absorption coefficient) [3] | wavelength (nm)/dodecane [3] | solubility (%) (solubility in dodecane) | value of L ([1]; hue) | value of a ([1]; hue) | value of b ([1]; hue)
CCCCCCCCCCc1ccc(N=Nc2ccc(N=Nc3ccc4c5c(cccc35)NC(C)(CCCC)N4)c3ccccc23)cc1 (racemic) [D10-C1,4] | 232 | 320 nm | 23.6 | 2.42 cp | 9.11 × 10^3 | 560 nm | 2.15% | – | – | –
CCCCc1ccc(N=Nc2ccc(N=Nc3ccc4c5c(cccc35)NC(CC(C)C)(CC(C)C)N4)c3ccccc23)cc1 [D4-C4,4] | 191 | 250 nm | 24.5 | 2.21 cp | 3.41 × 10^3 | 560 nm | 4.00% | – | – | –
CCCCCCCCc1ccc(N=Nc2ccc(N=Nc3ccc4c5c(cccc35)NC(CC(C)C)(CC(C)C)N4)c3ccccc23)cc1 [D8-C4,4] | 320 | 300 nm | 23.5 | 2.33 cp | 9.50 × 10^3 | 580 nm | 2.96% | – | – | –
CCCCCCCCCCc1ccc(N=Nc2ccc(N=Nc3ccc4c5c(cccc35)NC(CC(C)C)(CC(C)C)N4)c3ccccc23)cc1 [D10-C4,4] | 136 | 320 nm | 24.8 | 2.55 cp | 9.95 × 10^3 | 590 nm | 1.23% | – | – | –

Results, then the compound that gave them:

FoM [1] | full width at half maximum (nm) [1] | surface tension (dyne/cm^2) [2] | viscosity (cp) [2] | ε (molar absorption coefficient) [3] | wavelength (nm)/dodecane [3] | solubility (%) (solubility in dodecane) | value of L ([1]; hue) | value of a ([1]; hue) | value of b ([1]; hue) | Compound
526 | 300 nm | 23.2 | 2.42 cp | 7.05 × 10^3 | 580 nm | 6.00% | – | – | – | CCCCCCCCc1ccc(N=Nc2ccc(N=Nc3ccc4c5c(cccc35)NC(CC)(CC)N4)c3ccccc23)cc1 [D8-C2,2]
779 | 320 nm | 25.1 | 2.35 cp | 8.13 × 10^3 | 580 nm | 8.00% | 0.01 | 0.38 | −0.18 | CCCCCCCCCCc1ccc(N=Nc2ccc(N=Nc3ccc4c5c(cccc35)NC(CC)(CC)N4)c3ccccc23)cc1 [D10-C2,2]
